Reference: paper PMC11880385 (Nature Communications, 2025)
Converted amounts (≈) assume the structure as drawn. “Also recorded” adds a separate entry of the source.

Key:
[1] = biological target: T1, C. albicans Yck2 kinase domain (Candida albicans, UniProt A0A1D8PKB4); assay: biochemical; format: biochemical; settings: for CaYck2 IC50: two-fold dose-response up to 1 µM, ATP 20 μM (Km)
T1 sequence (A0A1D8PKB4 37-345): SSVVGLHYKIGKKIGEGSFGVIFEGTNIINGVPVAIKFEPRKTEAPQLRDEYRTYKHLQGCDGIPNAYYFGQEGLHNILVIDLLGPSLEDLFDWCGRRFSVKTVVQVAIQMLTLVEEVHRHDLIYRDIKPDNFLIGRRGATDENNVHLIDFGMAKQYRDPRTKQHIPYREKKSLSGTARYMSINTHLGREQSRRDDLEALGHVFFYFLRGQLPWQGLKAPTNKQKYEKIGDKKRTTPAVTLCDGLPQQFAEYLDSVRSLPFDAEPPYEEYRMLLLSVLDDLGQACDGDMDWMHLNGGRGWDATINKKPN

human CK1α = human CK1α (Homo sapiens, UniProt P48729); assay: HsCK1α kinase inhibition assay; format: biochemical
Sequence of human CK1α (P48729 whole entry): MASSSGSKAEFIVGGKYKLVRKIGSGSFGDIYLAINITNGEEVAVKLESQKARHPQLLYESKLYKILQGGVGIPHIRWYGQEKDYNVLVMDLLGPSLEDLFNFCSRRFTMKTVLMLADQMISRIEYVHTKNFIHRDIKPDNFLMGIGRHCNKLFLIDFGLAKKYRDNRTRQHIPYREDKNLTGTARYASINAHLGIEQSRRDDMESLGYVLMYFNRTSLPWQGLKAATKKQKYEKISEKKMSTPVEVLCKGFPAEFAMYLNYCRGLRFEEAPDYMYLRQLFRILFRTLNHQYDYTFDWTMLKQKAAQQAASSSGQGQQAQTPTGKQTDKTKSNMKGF

C. albicans (CaSS1) = assay: C. albicans growth inhibition, two-fold dose-response assay; settings: for whole-cell antifungal activity against C. albicans / concentration at which bioactivity was retained: 5% CO2; for MIC80: Candida albicans, 48 h, read-out: C. albicans MIC80
[2] = tested on: C. albicans Yck2 kinase domain; assay: biochemical; format: biochemical, Candida albicans; settings: Ratio of HsCK1α IC50 / CaYck2 IC50
[3] = Mouse liver microsomal stability assay; settings: mouse liver microsomes; for metabolic stability category: 30 minutes, 1 μM; for remaining at 0.5 h, 1 µM: mouse
[4] = tested on: J774A.1 cells infected with C. albicans (SC5314); assay: Macrophage killing assay; settings: for macrophage viability in co-culture: 30 µM; for IC50: Mus musculus, J774.A1, 24 h, read-out: IC50 of rescuing macrophage viability
[5] = tested on: C. albicans (TEF1p-GFP) in J774A.1 cells; assay: Visualization of C. albicans filamentation in macrophages; settings: 4 h incubation; 0.94, 7.5 or 30 µM
HepG2-fLuc cells = assay: HepG2 / C. albicans co-culture: HepG2 survival by luminescence
[6] = tested on: C. albicans (FKS1^T1922C/FKS1^T1922C Eno1-GFP); assay: HepG2 / C. albicans co-culture: fungal burden by GFP fluorescence
[7] = tested on: echinocandin-resistant C. albicans strain (DPL15; FKS1^T1922C/FKS1^T1922C); assay: Caspofungin potentiation dose-response assay in echinocandin-resistant strain; settings: sub-inhibitory caspofungin (3 µg/mL); YPD, 30 °C, 48 h
[8] = Plasma, kidney and brain exposure in mice; settings: 50 mg/kg oral
[9] = Tolerability on repeated oral dosing in uninfected mice; settings: 25 mg/kg once daily over 3 days
[10] = tested on: C. albicans (TEF1p-GFP) in co-culture with J774A.1 cells; assay: C. albicans growth in co-culture with macrophages; settings: 16 h post-infection
[11] = Plasma pharmacokinetic profiling in mice; settings: female, CD1, mouse, in vivo, po, 25 mg/kg, maximal plasma concentration (Cmax), 25 mg/kg p.o.
C. auris = settings: cited from earlier work
Cryptococcus neoformans = settings: cited from earlier work
[12] = tested on: Nakaseomyces glabratus (formerly referred to as Candida glabrata); settings: cited from earlier work
Aspergillus fumigatus = settings: cited from earlier work

Compound | IC50 [1] | IC50 (human CK1α) | whole-cell antifungal activity against C. albicans (C. albicans (CaSS1); RPMI, 37 °C) | Fungal selectivity (fold) [2] | remaining at 0.5 h, 1 µM [3] | MIC80 (C. albicans (CaSS1)) | also measured
N#Cc1cccn2nc(-c3ccc(F)cc3)c(-c3ccncc3)c12 [Compound 2o] | > 1000 nM | > 15000 nM | little to no whole-cell antifungal activity |  |  |  | CaYck2 IC50 [1]: above the maximum concentration tested
Cc1ccn2c(-c3ccncc3)c(-c3ccc(F)cc3)nc2c1 [Compound 1a] | 630 nM | 1700 nM |  | 2.6 fold | 0% | > 100 µM | metabolic stability category [3]: unstable (compound concentration remaining in the microsomal suspension after incubation for 30 minutes was ≤ 50% of the starting concentration (1 μM))
Fc1ccc(-c2nc3cc(F)ccn3c2-c2ccncc2)cc1 [Compound 1f] |  | 1400 nM | robust anti-C. albicans bioactivity |  | 75% | 50 µM (≈ 15.4 µg/mL) | macrophage viability in co-culture [4]: restoring full viability; filamentation of C. albicans [5]: inhibited filamentation; rescue of HepG2 viability (HepG2-fLuc cells; at or above 6.25 µM): partially rescued HepG2 viability; C. albicans in co-culture relative to compound-free controls ([6]; at or above 6.25 µM): ~ 50%; reduction in MIC80 upon addition of caspofungin [7]: ≥ 4 fold
Fc1ccc(-c2nc3cc(C(F)(F)F)ccn3c2-c2ccncc2)cc1 [Compound 1g] | 630 nM | 8400 nM | loss of bioactivity | 13 fold | 84% | > 100 µM | 
N#Cc1ccc2c(-c3ccncc3)c(-c3ccc(F)cc3)nn2c1 [Compound 2a] |  |  | robust anti-C. albicans bioactivity |  |  | 12.5 µM (≈ 3.93 µg/mL) | brain penetration [8]: accumulated in brain tissue at levels higher than the systemic circulation; macrophage viability in co-culture [4]: restoring full viability; IC50 [4]: 2170 nM; changes in animal weight or behavior [9]: no changes in animal weight or behavior were observed; filamentation of C. albicans [5]: inhibited filamentation; reduction of C. albicans growth in co-culture [10]: most effective; Cmax [11]: ~15 µM; C. albicans MIC80 (C. albicans (CaSS1); wild-type C. albicans, RPMI, 37 °C, 5% CO2, 48 h): 12.5 µM; reduction in MIC80 upon addition of caspofungin [7]: ≥ 32 fold
Cc1ccn2nc(-c3ccc(F)cc3)c(-c3ccncc3)c2c1 [Compound 2f] |  | 2000 nM |  |  | 1% |  | metabolic stability category [3]: unstable (compound concentration remaining in the microsomal suspension after incubation for 30 minutes was ≤ 50% of the starting concentration (1 μM))
CCc1ccn2c(-c3ccncc3)c(-c3ccc(F)cc3)nc2c1 [Compound 1d] | 490 nM | 1700 nM |  | 3.5 fold | 0% | 50 µM (≈ 15.9 µg/mL) | concentration at which bioactivity was retained (C. albicans (CaSS1); RPMI, 37 °C): 50 µM
Fc1ccc(-c2nn3cccc(F)c3c2-c2ccncc2)cc1 [Compound 2m] |  |  |  | 27 fold |  | 25 µM (≈ 7.68 µg/mL) | 
Fc1ccc(-c2nn3ccc(C(F)(F)F)cc3c2-c2ccncc2)cc1 [Compound 2h] | > 1000 nM | > 15000 nM | little to no whole-cell antifungal activity |  |  |  | CaYck2 IC50 [1]: above the maximum concentration tested
Fc1ccc(-c2nn3cc(C(F)(F)F)ccc3c2-c2ccncc2)cc1 [Compound 2c] | > 1000 nM |  | little to no whole-cell antifungal activity; also recorded: loss of bioactivity |  |  | > 100 µM | CaYck2 IC50 [1]: above the maximum concentration tested
Cc1ccc2c(-c3ccncc3)c(-c3ccc(F)cc3)nn2c1 [GW, GW461484A, reference compound] |  |  |  |  | < 1% | 12.5 µM (≈ 3.79 µg/mL) | antifungal activity (C. auris): possesses antifungal activity; antifungal activity (Cryptococcus neoformans): possesses antifungal activity; single-agent antifungal activity in vitro [12]: no single-agent antifungal activity was observed; single-agent antifungal activity in vitro (Aspergillus fumigatus): no single-agent antifungal activity was observed; macrophage viability in co-culture [4]: restoring full viability; IC50 [4]: 2050 nM; metabolic stability category [3]: unstable (compound concentration remaining in the microsomal suspension after incubation for 30 minutes was ≤ 50% of the starting concentration (1 μM)); filamentation of C. albicans [5]: inhibited filamentation; reduction of C. albicans growth in co-culture [10]: most effective; reduction in MIC80 upon addition of caspofungin [7]: ≥ 32 fold
Fc1ccc(-c2nn3cc(F)ccc3c2-c2ccncc2)cc1 [Compound 2b] |  |  | robust anti-C. albicans bioactivity |  |  | 25 µM (≈ 7.68 µg/mL) | macrophage viability in co-culture [4]: restoring full viability; filamentation of C. albicans [5]: inhibited filamentation; concentrations giving mild reduction in HepG2 viability (HepG2-fLuc cells): > 12.5 µM; reduction in MIC80 upon addition of caspofungin [7]: ≥ 32 fold
Oc1ccc2c(-c3ccncc3)c(-c3ccc(F)cc3)nn2c1 [Compound 2e] |  |  | no measurable whole-cell activity |  |  | > 100 µM | 
CCCc1ccn2c(-c3ccncc3)c(-c3ccc(F)cc3)nc2c1 [Compound 1i] |  |  |  |  | 0% | > 100 µM | 
COc1ccc2c(-c3ccncc3)c(-c3ccc(F)cc3)nn2c1 [Compound 2d] |  |  | robust anti-C. albicans bioactivity |  |  | 12.5 µM (≈ 3.99 µg/mL) | 
Fc1ccc(-c2nc3cc(C4CC4)ccn3c2-c2ccncc2)cc1 [Compound 1h] | 180 nM |  |  |  | 0% | 50 to 100 µM (≈ 16.5 to 32.9 µg/mL) | concentration at which bioactivity was retained (C. albicans (CaSS1); RPMI, 37 °C): 50 µM
COc1ccn2c(-c3ccncc3)c(-c3ccc(F)cc3)nc2c1 [Compound 1b] | 260 nM | 1000 nM | robust anti-C. albicans bioactivity | 3.9 fold | 2% | 50 µM (≈ 16 µg/mL) | 
COc1cccn2nc(-c3ccc(F)cc3)c(-c3ccncc3)c12 [Compound 2n] | 120 nM | 4900 nM |  | 41 fold | 1% | 25 µM (≈ 7.98 µg/mL) | 
CC(C)(C)c1ccn2c(-c3ccncc3)c(-c3ccc(F)cc3)nc2c1 [Compound 1c] | 700 nM | 6100 nM |  | 8.6 fold | 67% | > 100 µM | 
Oc1ccn2nc(-c3ccc(F)cc3)c(-c3ccncc3)c2c1 [Compound 2k] |  |  | no measurable whole-cell activity |  |  | > 100 µM | 
N#Cc1ccn2c(-c3ccncc3)c(-c3ccc(F)cc3)nc2c1 [Compound 1e] |  |  | robust anti-C. albicans bioactivity |  | 80% | 50 µM (≈ 15.7 µg/mL) | brain penetration [8]: accumulated in brain tissue at levels higher than the systemic circulation; macrophage viability in co-culture [4]: restoring full viability; IC50 [4]: 6680 nM; changes in animal weight or behavior [9]: no changes in animal weight or behavior were observed; filamentation of C. albicans [5]: inhibited filamentation; Cmax [11]: ~36 µM; concentration clearing the majority of co-cultured C. albicans ([6]; 48 h co-culture with HepG2): 6.25 µM; reduction in MIC80 upon addition of caspofungin [7]: ≥ 32 fold
